# Reference: ChEMBL document CHEMBL1153255, “Studies on irreversible inhibition of serine proteases by -sulfonyloxyketone derivatives” (Bioorg Med Chem Lett, 1996)
# Experiments:
# [1] = target: Chymotrypsinogen A (Bos taurus) (UniProt P00766); assay: Compound was evaluated for its inhibitory activity against alpha- chymotrypsin
# [2] = target: Chymotrypsinogen A (Bos taurus) (UniProt P00766); assay: Compound was evaluated for inhibitory activity against alpha- chymotrypsin
# [3] = target: T1, Chymotrypsin-like elastase family member 2A (Sus scrofa) (UniProt P08419); assay: Compound was evaluated for inhibitory activity against porcine pancreatic elastase
# T1 sequence (whole entry): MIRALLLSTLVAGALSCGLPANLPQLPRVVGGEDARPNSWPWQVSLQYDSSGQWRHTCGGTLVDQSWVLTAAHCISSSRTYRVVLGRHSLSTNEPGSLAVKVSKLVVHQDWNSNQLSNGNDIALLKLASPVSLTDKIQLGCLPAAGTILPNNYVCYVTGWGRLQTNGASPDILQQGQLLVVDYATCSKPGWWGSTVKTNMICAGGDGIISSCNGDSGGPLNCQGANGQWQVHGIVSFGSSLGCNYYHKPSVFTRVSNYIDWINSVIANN
# [4] = target: T1, Chymotrypsin-like elastase family member 2A (Sus scrofa); assay: Compound was evaluated for inhibitory activity against porcine pancreatic elastase; No inactivation
K obs / 1 [1] [M⁻¹ s⁻¹],I [2] [mM],I [3] [mM],K obs / 1 [2] [M⁻¹ s⁻¹],K obs / 1 [4],K obs / 1 [3] [M⁻¹ s⁻¹],Structure (SMILES)
7.7,0.057,,,,,Cc1ccc(S(=O)(=O)N[C@@H](Cc2ccccc2)C(=O)CCl)cc1
,0.096,0.103,10.5,No inhibition,,CC(=O)C(Cc1ccccc1)OS(=O)(=O)c1ccc(C)cc1 (configuration not stated)
,2.31,,0.33,,,CC(=O)C(Cc1ccccc1)OS(C)(=O)=O (configuration not stated)
,3.28,2.01,0.01,,0.19,CC(=O)C(C)OS(=O)(=O)c1ccccc1 (configuration not stated)
